Assay results reported in EP0372667A1, “2-Hydroxymethyl thiophene derivatives, process for their preparation and their use as medicaments” (SCHERING AKTIENGESELLSCHAFT, priority 1988, dated 1990).
Counter-ions that a name gives are not always drawn.

Experiments:
[1] = system: wachen, spontan hypertensiven Ratten; assay: Blood pressure and heart rate in conscious spontaneously hypertensive rats; settings: in vivo
Source text: (§1) Die Messungen von Blutdruck und Herzfrequenz wurden an der spontan hypertensiven Ratte und am narkotisierten, normotensiven Hund durchgeführt (siehe Tabelle 1 und 2).

[2] = system: narkotisierten, normtensiven Hunden; assay: Blood pressure and heart rate in anaesthetised normotensive dogs; format: in vivo, Beagle-Hunde; settings: anaesthetised normotensive dog, at a dose giving a similar fall in blood pressure; text summary of Tabelle 2
Source text: as §1

Compound	Herzfrequenz (result in words) [1]	Herzfrequenz (result in words) [2]
O=C1c2cc(CO)sc2CCC1CN[C@@H]1CC[C@@H](Oc2ccccc2)[C@@H]1O (relative stereo) [Beispiel 1, 5-[N-((Z)-2-Hydroxy-(E)-3-phenoxy-cyclopentyl)-aminomethyl]-4,5,6,7-tetrahydro-2-hydroxymethyl-benzothiophen-4-on, Hydrochlorid]	Herzfrequenzerniedrigung	praktisch keine Herzfrequenzänderung
Cc1cc2c(s1)CCC(CN[C@@H]1CC[C@@H](Oc3ccccc3)[C@@H]1O)C2=O (relative stereo) [MDL 19744 A]	ausgeprägten Herzfrequenzsteigerung	ausgeprägten Herzfrequenzsteigerung
